Measurements published in patent EP4722212A1, “NOVEL COMPOUND FOR INHIBITING PROTEIN KINASES AND PHARMACEUTICAL COMPOSITION COMPRISING SAME” (Magicbullettherapeutics Co., Ltd., priority 2023, dated 2024).
Where two headings read alike, the source gives them in different places.

What was measured:
Test in all cases: Kinase panel
Assay type in all cases: biochemical
[1] = molecular target: ABL1 (Homo sapiens, UniProt P00519); settings: ABL1, 1 µM; read-out: residual enzyme activity
Procedure, shortened: (§1)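 Full kinase panel, biochemical readout. A single 1 µM compound concentration was tested, and residual activity was derived; kinases whose activity dropped to 40% or less were recorded.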

[2] = molecular target: AXL (Homo sapiens, UniProt P30530); settings: read-out: residual enzyme activity
Procedure, shortened: as §1

[3] = molecular target: C-MET (Homo sapiens, UniProt P08581); settings: read-out: residual enzyme activity
C-MET, sequence (P08581 25-1390): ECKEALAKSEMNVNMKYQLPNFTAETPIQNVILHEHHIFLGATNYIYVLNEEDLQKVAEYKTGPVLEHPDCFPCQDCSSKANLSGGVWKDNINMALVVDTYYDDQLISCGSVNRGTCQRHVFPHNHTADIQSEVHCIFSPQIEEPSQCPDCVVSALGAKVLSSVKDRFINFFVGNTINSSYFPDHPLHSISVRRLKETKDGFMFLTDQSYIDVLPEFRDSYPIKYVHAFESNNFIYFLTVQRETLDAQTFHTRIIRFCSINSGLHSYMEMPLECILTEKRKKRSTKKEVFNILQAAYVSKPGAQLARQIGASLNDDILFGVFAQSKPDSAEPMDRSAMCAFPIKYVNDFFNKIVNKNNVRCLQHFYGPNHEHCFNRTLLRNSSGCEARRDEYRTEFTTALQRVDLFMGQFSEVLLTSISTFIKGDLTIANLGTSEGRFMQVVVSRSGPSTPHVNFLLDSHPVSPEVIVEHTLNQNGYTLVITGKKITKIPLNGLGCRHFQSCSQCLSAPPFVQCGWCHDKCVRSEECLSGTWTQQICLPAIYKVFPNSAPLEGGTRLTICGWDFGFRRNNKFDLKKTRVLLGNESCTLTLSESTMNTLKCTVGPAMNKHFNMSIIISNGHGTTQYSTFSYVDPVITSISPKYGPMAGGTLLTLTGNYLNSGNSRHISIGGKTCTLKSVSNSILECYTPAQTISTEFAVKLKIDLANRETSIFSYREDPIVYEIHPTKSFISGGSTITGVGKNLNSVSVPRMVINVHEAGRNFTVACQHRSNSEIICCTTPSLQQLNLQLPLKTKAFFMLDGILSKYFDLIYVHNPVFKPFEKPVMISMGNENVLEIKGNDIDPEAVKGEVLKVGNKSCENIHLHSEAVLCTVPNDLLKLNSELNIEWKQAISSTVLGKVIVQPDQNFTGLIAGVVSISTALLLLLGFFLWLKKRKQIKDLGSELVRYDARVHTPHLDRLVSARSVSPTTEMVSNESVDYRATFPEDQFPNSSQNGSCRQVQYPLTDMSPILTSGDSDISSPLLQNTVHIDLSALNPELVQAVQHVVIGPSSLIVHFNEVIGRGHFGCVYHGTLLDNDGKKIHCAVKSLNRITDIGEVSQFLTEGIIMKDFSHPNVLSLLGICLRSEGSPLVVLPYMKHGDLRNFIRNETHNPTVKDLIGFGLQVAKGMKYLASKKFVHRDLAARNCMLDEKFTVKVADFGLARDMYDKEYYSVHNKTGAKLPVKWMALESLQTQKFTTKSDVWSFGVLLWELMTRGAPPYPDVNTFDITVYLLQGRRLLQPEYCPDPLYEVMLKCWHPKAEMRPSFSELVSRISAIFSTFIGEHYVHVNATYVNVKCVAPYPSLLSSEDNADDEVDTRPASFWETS
Procedure, shortened: as §1

[4] = molecular target: CAMK2B (Homo sapiens, UniProt Q13554); settings: read-out: residual enzyme activity
Procedure, shortened: as §1

[5] = molecular target: CHK1 (Homo sapiens, UniProt O14757); settings: CHK1, 1 µM; read-out: residual enzyme activity
Procedure, shortened: as §1

[6] = molecular target: CK1A1L (Homo sapiens, UniProt Q8N752); settings: read-out: residual enzyme activity
Procedure, shortened: as §1

[7] = molecular target: CK1G1 (Homo sapiens, UniProt Q9HCP0); settings: read-out: residual enzyme activity
CK1G1, sequence (Q9HCP0 whole entry): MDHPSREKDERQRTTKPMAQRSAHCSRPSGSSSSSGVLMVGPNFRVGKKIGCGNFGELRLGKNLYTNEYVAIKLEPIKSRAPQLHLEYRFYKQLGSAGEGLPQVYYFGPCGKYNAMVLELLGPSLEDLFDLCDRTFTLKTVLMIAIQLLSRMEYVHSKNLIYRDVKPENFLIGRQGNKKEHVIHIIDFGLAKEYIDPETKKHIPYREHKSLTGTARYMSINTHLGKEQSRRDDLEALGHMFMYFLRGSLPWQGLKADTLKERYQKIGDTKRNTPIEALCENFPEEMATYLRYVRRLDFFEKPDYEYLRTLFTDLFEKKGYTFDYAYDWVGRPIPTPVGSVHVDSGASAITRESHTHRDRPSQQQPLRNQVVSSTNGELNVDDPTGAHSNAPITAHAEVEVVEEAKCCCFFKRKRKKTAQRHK
Procedure, shortened: as §1

[8] = molecular target: CK2A (Homo sapiens, UniProt P68400); settings: read-out: residual enzyme activity
Procedure, shortened: as §1

[9] = molecular target: CLK4 (Homo sapiens, UniProt Q9HAZ1); settings: CLK4, 1 µM; read-out: residual enzyme activity
Procedure, shortened: as §1

[10] = molecular target: DRAK1/STK17A (Homo sapiens, UniProt Q9UEE5); settings: read-out: residual enzyme activity
Procedure, shortened: as §1

[11] = molecular target: EPHA3 (Homo sapiens, UniProt P29320); settings: EPHA3, 1 µM; read-out: residual enzyme activity
Procedure, shortened: as §1

[12] = molecular target: EPHAS (Homo sapiens, UniProt P54756); settings: read-out: residual enzyme activity
Procedure, shortened: as §1

[13] = molecular target: ERBB4/HER4 (Homo sapiens, UniProt Q15303); settings: ERBB4/HER4, 1 µM; read-out: residual enzyme activity
Procedure, shortened: as §1

[14] = molecular target: FGFR2 (Homo sapiens, UniProt P21802); settings: FGFR2, 1 µM; read-out: residual enzyme activity
Procedure, shortened: as §1

[15] = molecular target: GCK/MAP4K2 (Homo sapiens, UniProt Q12851); settings: GCK/MAP4K2, 1 µM; read-out: residual enzyme activity
Procedure, shortened: as §1

[16] = molecular target: HIPK4 (Homo sapiens, UniProt Q8NE63); settings: HIPK4, 1 µM; read-out: residual enzyme activity
Procedure, shortened: as §1

[17] = molecular target: IRR/INSRR (Homo sapiens, UniProt P14616); settings: read-out: residual enzyme activity
Procedure, shortened: as §1

[18] = molecular target: ITK (Homo sapiens, UniProt Q08881); settings: read-out: residual enzyme activity
Procedure, shortened: as §1

[19] = molecular target: LIMK2 (Homo sapiens, UniProt P53671); settings: LIMK2, 1 µM; read-out: residual enzyme activity
Procedure, shortened: as §1

[20] = molecular target: MEK2 (Homo sapiens, UniProt P36507); settings: MEK2, 1 µM; read-out: residual enzyme activity
MEK2, sequence (P36507 whole entry, species assumed): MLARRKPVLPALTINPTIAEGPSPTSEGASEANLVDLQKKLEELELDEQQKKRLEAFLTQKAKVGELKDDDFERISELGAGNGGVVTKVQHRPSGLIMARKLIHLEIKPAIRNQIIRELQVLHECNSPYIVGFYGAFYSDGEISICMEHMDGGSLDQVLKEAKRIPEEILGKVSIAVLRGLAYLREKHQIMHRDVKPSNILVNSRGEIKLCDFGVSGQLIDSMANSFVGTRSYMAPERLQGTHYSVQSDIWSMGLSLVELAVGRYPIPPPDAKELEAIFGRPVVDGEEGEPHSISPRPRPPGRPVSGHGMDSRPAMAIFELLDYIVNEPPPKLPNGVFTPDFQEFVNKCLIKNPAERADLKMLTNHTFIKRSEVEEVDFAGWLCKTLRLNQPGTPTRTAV
Procedure, shortened: as §1

[21] = molecular target: MRCKA/CDC42BPA (Homo sapiens, UniProt Q5VT25); settings: read-out: residual enzyme activity
Procedure, shortened: as §1

[22] = molecular target: NEK5 (Homo sapiens, UniProt Q6P3R8); settings: NEK5, 1 µM; read-out: residual enzyme activity
Procedure, shortened: as §1

[23] = molecular target: OSR1/OXSR1 (Homo sapiens, UniProt O95747); settings: OSR1/OXSR1, 1 µM; read-out: residual enzyme activity
Procedure, shortened: as §1

[24] = molecular target: PKACB (Homo sapiens, UniProt P22694); settings: read-out: residual enzyme activity
Procedure, shortened: as §1

[25] = molecular target: PKCEPSILON (Homo sapiens, UniProt Q02156); settings: read-out: residual enzyme activity
Procedure, shortened: as §1

[26] = molecular target: PLK2 (Homo sapiens, UniProt Q9NYY3); settings: PLK2, 1 µM; read-out: residual enzyme activity
Procedure, shortened: as §1

[27] = molecular target: SBK1 (Homo sapiens, UniProt Q52WX2); settings: SBK1, 1 µM; read-out: residual enzyme activity
Procedure, shortened: as §1

[28] = molecular target: SIK1 (Homo sapiens, UniProt P57059); settings: SIK1, 1 µM; read-out: residual enzyme activity
SIK1, sequence (P57059 whole entry, species assumed): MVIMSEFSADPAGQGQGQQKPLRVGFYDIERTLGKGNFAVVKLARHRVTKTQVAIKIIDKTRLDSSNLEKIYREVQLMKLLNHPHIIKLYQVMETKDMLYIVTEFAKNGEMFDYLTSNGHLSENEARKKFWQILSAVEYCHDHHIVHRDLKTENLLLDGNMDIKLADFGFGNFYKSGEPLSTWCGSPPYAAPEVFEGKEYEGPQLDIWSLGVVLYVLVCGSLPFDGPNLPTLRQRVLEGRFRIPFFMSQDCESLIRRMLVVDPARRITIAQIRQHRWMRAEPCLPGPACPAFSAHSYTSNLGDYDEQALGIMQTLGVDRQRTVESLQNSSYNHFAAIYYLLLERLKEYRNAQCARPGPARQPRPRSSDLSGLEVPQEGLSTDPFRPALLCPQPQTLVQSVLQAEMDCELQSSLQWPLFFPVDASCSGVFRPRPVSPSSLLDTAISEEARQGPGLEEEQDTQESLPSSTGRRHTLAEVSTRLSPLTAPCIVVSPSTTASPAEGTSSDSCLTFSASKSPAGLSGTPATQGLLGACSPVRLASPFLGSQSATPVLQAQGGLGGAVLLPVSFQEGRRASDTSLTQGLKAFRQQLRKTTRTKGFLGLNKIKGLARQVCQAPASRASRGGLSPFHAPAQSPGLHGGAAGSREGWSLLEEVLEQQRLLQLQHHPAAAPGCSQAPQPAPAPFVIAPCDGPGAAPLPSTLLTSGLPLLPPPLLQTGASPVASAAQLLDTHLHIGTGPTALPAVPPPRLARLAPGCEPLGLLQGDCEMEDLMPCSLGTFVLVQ
Procedure, shortened: as §1

[29] = molecular target: SLK/STK2 (Homo sapiens, UniProt Q9H2G2); settings: SLK/STK2, 1 µM; read-out: residual enzyme activity
SLK/STK2, sequence (Q9H2G2 whole entry): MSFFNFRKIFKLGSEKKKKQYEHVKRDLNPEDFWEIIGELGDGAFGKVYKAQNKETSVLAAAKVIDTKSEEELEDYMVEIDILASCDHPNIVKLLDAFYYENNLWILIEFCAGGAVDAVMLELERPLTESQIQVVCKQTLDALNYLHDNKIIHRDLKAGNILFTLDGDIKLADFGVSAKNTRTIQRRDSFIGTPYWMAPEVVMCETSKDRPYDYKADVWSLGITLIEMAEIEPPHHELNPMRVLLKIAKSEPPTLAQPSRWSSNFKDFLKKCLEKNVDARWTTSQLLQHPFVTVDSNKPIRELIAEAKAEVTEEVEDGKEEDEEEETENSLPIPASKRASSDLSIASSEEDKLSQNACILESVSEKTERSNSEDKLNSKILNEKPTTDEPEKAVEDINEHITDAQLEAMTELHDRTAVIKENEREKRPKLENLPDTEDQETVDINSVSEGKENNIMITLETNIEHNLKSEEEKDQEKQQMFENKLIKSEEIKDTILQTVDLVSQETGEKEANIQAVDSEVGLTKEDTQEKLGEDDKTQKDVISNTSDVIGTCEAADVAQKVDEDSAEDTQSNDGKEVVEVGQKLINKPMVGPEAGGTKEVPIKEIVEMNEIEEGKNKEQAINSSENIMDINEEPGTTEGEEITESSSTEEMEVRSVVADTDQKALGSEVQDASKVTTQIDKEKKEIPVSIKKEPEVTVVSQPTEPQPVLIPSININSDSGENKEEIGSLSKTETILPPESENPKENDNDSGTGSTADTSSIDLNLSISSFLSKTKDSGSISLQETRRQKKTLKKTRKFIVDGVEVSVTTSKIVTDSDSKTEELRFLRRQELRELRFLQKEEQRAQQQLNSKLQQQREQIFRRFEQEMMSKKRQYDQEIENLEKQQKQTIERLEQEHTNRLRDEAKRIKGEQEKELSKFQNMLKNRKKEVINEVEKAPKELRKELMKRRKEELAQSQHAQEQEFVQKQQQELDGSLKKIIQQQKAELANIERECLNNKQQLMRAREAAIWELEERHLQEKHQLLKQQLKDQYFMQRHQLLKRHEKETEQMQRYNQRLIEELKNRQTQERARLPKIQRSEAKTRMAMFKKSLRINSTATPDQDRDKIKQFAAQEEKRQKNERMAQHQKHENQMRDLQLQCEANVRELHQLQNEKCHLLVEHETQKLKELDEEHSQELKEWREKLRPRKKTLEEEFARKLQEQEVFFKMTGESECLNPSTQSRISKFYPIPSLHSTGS
Procedure, shortened: as §1

[30] = molecular target: SNARK/NUAK2 (Homo sapiens, UniProt Q9H093); settings: SNARK/NUAK2, 1 µM; read-out: residual enzyme activity
Procedure, shortened: as §1

[31] = molecular target: TAOK2/TAO1 (Homo sapiens, UniProt Q9UL54); settings: TAOK2/TAO1, 1 µM; read-out: residual enzyme activity
Procedure, shortened: as §1

[32] = molecular target: TLK2 (Homo sapiens, UniProt Q86UE8); settings: TLK2, 1 µM; read-out: residual enzyme activity
Procedure, shortened: as §1

[33] = molecular target: TRKA (Homo sapiens, UniProt P04629); settings: read-out: residual enzyme activity
Procedure, shortened: as §1

[34] = molecular target: ZAK/MLTK (Homo sapiens, UniProt Q9NYL2); settings: read-out: residual enzyme activity
ZAK/MLTK, sequence (Q9NYL2 whole entry): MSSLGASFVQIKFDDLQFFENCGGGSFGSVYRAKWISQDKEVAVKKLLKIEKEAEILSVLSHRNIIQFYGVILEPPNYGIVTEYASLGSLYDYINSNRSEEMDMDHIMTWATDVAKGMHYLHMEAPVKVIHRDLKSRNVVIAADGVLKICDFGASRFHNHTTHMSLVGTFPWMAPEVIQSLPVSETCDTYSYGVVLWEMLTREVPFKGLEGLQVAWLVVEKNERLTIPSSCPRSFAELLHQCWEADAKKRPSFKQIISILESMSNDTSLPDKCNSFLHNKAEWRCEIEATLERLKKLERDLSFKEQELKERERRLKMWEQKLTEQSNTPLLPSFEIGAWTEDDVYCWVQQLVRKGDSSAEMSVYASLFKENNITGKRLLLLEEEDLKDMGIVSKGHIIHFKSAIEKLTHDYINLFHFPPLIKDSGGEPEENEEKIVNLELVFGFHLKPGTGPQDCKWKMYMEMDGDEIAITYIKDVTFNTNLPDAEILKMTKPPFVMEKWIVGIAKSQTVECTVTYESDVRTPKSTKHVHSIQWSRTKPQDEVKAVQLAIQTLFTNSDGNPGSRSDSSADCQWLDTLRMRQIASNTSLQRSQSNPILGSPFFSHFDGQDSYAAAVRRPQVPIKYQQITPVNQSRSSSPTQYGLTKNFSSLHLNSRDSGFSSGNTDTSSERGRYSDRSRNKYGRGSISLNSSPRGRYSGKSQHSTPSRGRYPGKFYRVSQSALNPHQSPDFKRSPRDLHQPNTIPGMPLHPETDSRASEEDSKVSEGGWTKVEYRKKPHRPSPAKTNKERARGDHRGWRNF
Procedure, shortened: as §1

Row | Compound | remaining activity at 1 µM [1] [%] | remaining activity at 1 µM [2] [%] | remaining activity at 1 µM [5] [%] | remaining activity at 1 µM [9] [%] | remaining activity at 1 µM [10] [%] | remaining activity at 1 µM [11] [%] | remaining activity at 1 µM [13] [%] | remaining activity at 1 µM [14] [%] | remaining activity at 1 µM [15] [%] | remaining activity at 1 µM [16] [%] | remaining activity at 1 µM [17] [%] | remaining activity at 1 µM [18] [%] | remaining activity at 1 µM [19] [%] | remaining activity at 1 µM [20] [%] | remaining activity at 1 µM [21] [%] | remaining activity at 1 µM [22] [%] | remaining activity at 1 µM [23] [%] | remaining activity at 1 µM [24] [%] | remaining activity at 1 µM [25] [%] | remaining activity at 1 µM [26] [%] | further results
1 | Cc1cn(-c2cc(C(=O)Nc3ccc(C)c(N4Cc5cnc(NC6CC6)nc5C5(CC5)C4=O)c3)cc(C(F)(F)F)c2)cn1 [Compound 8, N-(3-(2'-(cyclopropylamino)-7'-oxo-5'H-spiro[cyclopropane-1,8'-pyrido[4,3-d]pyrimidine]-6'(7'H)-yl)-4-methylphenyl)-3-(4-methyl-1H-imidazol-1-yl)-5-(trifluoromethyl)benzamide] | ≤ 40 | > 40 | > 40 | > 40 | > 40 | ≤ 40 | ≤ 40 | ≤ 40 | ≤ 40 | > 40 | > 40 | > 40 | ≤ 40 | > 40 | > 40 | > 40 | > 40 | > 40 | > 40 | > 40 | remaining activity at 1 µM ([3]; C-MET): > 40%; remaining activity at 1 µM ([4]; CAMK2B): > 40%; remaining activity at 1 µM ([6]; CK1A1L): > 40%; remaining activity at 1 µM ([7]; CK1G1, 1 µM): > 40%; remaining activity at 1 µM ([8]; CK2A): > 40%; remaining activity at 1 µM ([12]; EPHAS (row 107), 1 µM): ≤ 40%; remaining activity at 1 µM [27]: > 40%; remaining activity at 1 µM [28]: ≤ 40%; remaining activity at 1 µM [29]: ≤ 40%; remaining activity at 1 µM [30]: > 40%; remaining activity at 1 µM [31]: ≤ 40%; remaining activity at 1 µM [32]: > 40%; remaining activity at 1 µM [33]: ≤ 40%; remaining activity at 1 µM [34]: ≤ 40%
2 | Cc1ccc(Nc2ncc3c(n2)C2(CC2)C(=O)N(c2cc(NC(=O)c4cccc(C(F)(F)F)c4)ccc2C)C3)cn1 [Compound 51, N-(4-methyl-3-(2'-((6-methylpyridin-3-yl)amino)-7'-oxo-5'H-spiro[cyclopropane-1,8'-pyrido[4,3-d]pyrimidine]-6'(7'H)-yl)phenyl)-3-(trifluoromethyl)benzamide] | ≤ 40 | > 40 | > 40 | > 40 | > 40 | ≤ 40 | ≤ 40 | ≤ 40 | ≤ 40 | ≤ 40 | > 40 | > 40 | ≤ 40 | > 40 | > 40 | > 40 | > 40 | > 40 | > 40 | > 40 | remaining activity at 1 µM ([3]; c-MET): > 40%; remaining activity at 1 µM ([4]; CAMK2b): > 40%; remaining activity at 1 µM ([6]; CKlalL): > 40%; remaining activity at 1 µM ([7]; CK1g1, 1 µM): > 40%; remaining activity at 1 µM ([8]; CK2a): > 40%; remaining activity at 1 µM ([12]; EPHA5, 1 µM): ≤ 40%; remaining activity at 1 µM [27]: > 40%; remaining activity at 1 µM [28]: ≤ 40%; remaining activity at 1 µM [29]: ≤ 40%; remaining activity at 1 µM [30]: > 40%; remaining activity at 1 µM [31]: ≤ 40%; remaining activity at 1 µM [32]: > 40%; remaining activity at 1 µM [33]: ≤ 40%; remaining activity at 1 µM [34]: ≤ 40%
